Data from PubChem BioAssay (NCI).
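Where inhibition never reached the appropriate level, the endpoint shown equals the highest concentration tested. Otherwise, values were interpolated linearly from a five-concentration, 48-hour dose response in 96-well plates. GI50 = concentration required for 50% inhibition of growth. TGI: concentration producing complete growth inhibition.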

Key:
Test in all cases: NCI-60 cell line screen, 48 h
786-0 renal = system: 786-0 renal
ACHN renal = system: ACHN renal
BT-549 breast = system: BT-549 breast
DU-145 prostate = system: DU-145 prostate
HS 578T breast = system: HS 578T breast
M14 melanoma = system: M14 melanoma
MDA-MB-231 breast = system: MDA-MB-231 breast
MDA-MB-435 = system: MDA-MB-435
PC-3 prostate = system: PC-3 prostate
SR leukemia = system: SR leukemia
T-47D breast = system: T-47D breast
TK-10 renal = system: TK-10 renal

COc1ccc(O)c2c(=O)c3c(OC)cc4c(c3oc12)[C@@H]1C=CO[C@@H]1O4
GI50 (786-0 renal): 9.87 µM
TGI (786-0 renal): > 60.5 µM
GI50 (ACHN renal): 0.321 µM
TGI (ACHN renal): 5.64 µM
GI50 (BT-549 breast): 4.77 µM
TGI (BT-549 breast): 36.5 µM
GI50 (DU-145 prostate): 3.03 µM
TGI (DU-145 prostate): > 34.9 µM
GI50 (HS 578T breast): 3.96 µM
TGI (HS 578T breast): > 43 µM
GI50 (M14 melanoma): > 21.4 µM
TGI (M14 melanoma): > 100 µM
GI50 (MDA-MB-231 breast): 7.9 µM
TGI (MDA-MB-231 breast): > 100 µM
GI50 (MDA-MB-435): 3.3 µM
TGI (MDA-MB-435): > 100 µM
GI50 (PC-3 prostate): > 21.4 µM
TGI (PC-3 prostate): > 100 µM
GI50 (SR leukemia): 0.0518 µM
GI50 (T-47D breast): 0.475 µM
TGI (T-47D breast): 13.3 µM
GI50 (TK-10 renal): 4.51 µM
TGI (TK-10 renal): 34.9 µM
